Experimental data taken from EP0168522A2, “Active agent-containing shaped article” (Akzo Patente GmbH, priority 1983, dated 1986).
≈ marks a conversion by molar mass, not a printed value.

Test: Water solubility of the active agent
Type: physicochemical
Conditions: in water; read-out: Wasserlöslichkeit

solubility [mg/mL] | SMILES
14 (≈ 92.6 mM) | CC(=O)Nc1ccc(O)cc1 [Acetaminophen]
~70 (≈ 636 mM) | Oc1ccc(O)cc1 [Hydrochinon]
